Where “and” joins values, the source holds several entries; their conditions need not be identical. Identical values can stand only once.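 Values below derive from 48-hour exposures of cells grown in 96-well plates, with endpoints linearly interpolated between the two concentrations bracketing the appropriate inhibition level. GI50: concentration for 50% inhibition of growth. At the TGI there is no net growth.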
Legend:
Assay in all cases: DTP human tumour cell line panel, 48 h
ACHN renal = test system: ACHN renal
CAKI-1 renal = test system: CAKI-1 renal
HCT-15 colon = test system: HCT-15 colon
MOLT-4 leukemia = test system: MOLT-4 leukemia
OVCAR-5 ovarian = test system: OVCAR-5 ovarian
RPMI-8226 leukemia = test system: RPMI-8226 leukemia
SF-295 CNS = test system: SF-295 CNS
SK-MEL-2 melanoma = test system: SK-MEL-2 melanoma
SR leukemia = test system: SR leukemia
UO-31 renal = test system: UO-31 renal

| Compound | TGI (ACHN renal) | TGI (CAKI-1 renal) | TGI (HCT-15 colon) | TGI (MOLT-4 leukemia) [µM] | TGI (OVCAR-5 ovarian) | TGI (RPMI-8226 leukemia) | TGI (SF-295 CNS) | TGI (SK-MEL-2 melanoma) | TGI (SR leukemia) | TGI (UO-31 renal) | GI50 (ACHN renal) | GI50 (CAKI-1 renal) | GI50 (HCT-15 colon) | GI50 (MOLT-4 leukemia) | GI50 (OVCAR-5 ovarian) | GI50 (RPMI-8226 leukemia) | GI50 (SF-295 CNS) | GI50 (SK-MEL-2 melanoma) | GI50 (SR leukemia) | GI50 (UO-31 renal) |
| --- | --- | --- | --- | --- | --- | --- | --- | --- | --- | --- | --- | --- | --- | --- | --- | --- | --- | --- | --- | --- |
| C=CC(=O)N1C/C(=C\c2ccc(Cl)c(Cl)c2)C(=O)/C(=C/c2ccc(Cl)c(Cl)c2)C1 | 0.343 µM | 1.17 µM | 0.201 µM | 0.38 | 1.02 µM | 0.0983 µM | 0.891 µM | 1.43 µM | 0.0648 µM | 0.528 µM | – | – | – | – | – | – | – | – | – | – |
| COc1ccc([C@H](CC(=O)O)N2CCN(CCCc3ccc4c(n3)NCCC4)C2=O)cn1 | > 100 µM | > 100 µM | – | > 100 | > 100 µM | > 100 µM | > 100 µM | 0.237 µM | > 100 µM | > 100 µM | > 52 µM | 2.71 µM | 0.311 µM | > 100 µM | 0.403 µM | > 100 µM | 47.6 µM | 0.0331 µM | > 100 µM | > 36.7 µM |
| CC1=CC2C(C(O)CC3(C)C2CC(C)C32OCOC23COCO3)C2(C)C/C(=C/O)C(=O)C=C12 (stereo not given) | 3.45 µM | 3.8 µM | 5.07 µM | 4.9 | 3.92 µM | 5.15 µM | 5.34 µM | 3.8 µM | 4.45 µM | 3.04 µM | 1.85 µM | 1.94 µM | 1.97 µM | 1.97 µM | 1.98 µM | 1.84 µM | 2.22 µM | 1.97 µM | 2.11 µM | 1.52 µM |
| COc1c(C(C)=O)c(OCCCCOc2c(C(C)=O)c(OC)c3ccoc3c2OC)c(OC)c2occc12 | > 100 µM | > 100 µM | > 100 µM | 3.1 | > 100 µM | 5.57 µM | > 100 µM | > 100 µM | 7.72 µM | > 100 µM | 3.6 µM | 3.3 µM | 3.88 µM | 1.23 µM | > 100 µM | 0.394 µM | 1.35 µM | 2.76 µM | 0.258 µM | 2.34 µM |
| Nc1ccn(C2CC(F)C(CO)O2)c(=O)n1 (stereo not given) | > 100 µM | > 100 µM | > 100 µM | > 100 | > 100 µM | > 100 µM | > 100 µM | > 100 µM | > 100 µM | > 100 µM | > 100 µM | > 100 µM | > 100 µM | > 100 µM | > 100 µM | > 100 µM | > 100 µM | > 100 µM | > 100 µM | > 100 µM |
| COC(=O)c1cc(-c2ccccc2)[nH]c1N/N=C/c1c(Cl)cccc1Cl | 26.4 µM | 4.39 µM | > 36 µM | > 100 | 16.7 µM | 0.753 µM | 0.92 µM | 17.2 µM | > 100 µM | > 56.3 µM | 0.858 µM | 0.354 µM | 0.308 µM | 0.437 µM | 0.732 µM | 0.243 µM | 0.195 µM | 0.615 µM | 0.429 µM | 0.609 µM |
| COc1ccc(/C=C(/c2ccccc2)[N+](=O)[O-])c(OC)c1 | 2.81 µM | 2.64 µM | 2.13 µM | 6.77 | 3.74 µM | 1.64 µM | 3.86 µM | 5.28 µM | 16.2 µM | 2.47 µM | 1.49 µM | 1.23 µM | 0.576 µM | 2.14 µM | 1.92 µM | 0.372 µM | 1.97 µM | 1.91 µM | 0.641 µM | 1.23 µM |
| CCOc1ccc2c(-c3ccnc(Nc4cc(OC)cc(C(F)(F)F)c4)n3)cnn2n1 | > 25 µM | > 25 µM | > 25 µM | > 25 | > 25 µM | > 25 µM | > 25 µM | > 25 µM | > 25 µM | > 25 µM | > 25 µM | > 10.3 µM | > 23.3 µM | > 25 µM | > 25 µM | > 18.3 µM | > 14.6 µM | > 25 µM | 1.32 µM | > 25 µM |
| COc1ccc(C(=O)Cn2c(C(=O)c3ccccc3)nc3ccccc32)cc1 | > 100 µM | > 100 µM | > 100 µM | > 100 | > 100 µM | > 28.8 µM | > 100 µM | > 100 µM | – | > 100 µM | 6.23 µM | > 100 µM | 1.24 µM | 1.87 µM | > 26.1 µM | 3.05 µM | 3.19 µM | – | 0.763 µM | 13.3 µM |
| O=C1NC(N/N=C\C(O)C(O)C(O)C(O)CO)=N/C1=C/c1ccccc1 (stereo not given) | > 100 µM and 28.1 µM | > 100 µM and 38.1 µM | > 100 µM and 33.8 µM | – | > 100 µM and 44.9 µM | > 100 µM and 45.2 µM | > 100 µM and 38.2 µM | > 100 µM and 32.7 µM | > 100 µM and 51.2 µM | > 100 µM and 32.2 µM | 80.6 µM and 14.7 µM and > 100 µM | > 100 µM and 19.4 µM | 51.9 µM and 12.7 µM and > 100 µM | 22.3 µM and 2.74 µM and 25.7 µM | > 100 µM and 24.4 µM | 58.8 µM and 19.6 µM and > 100 µM | 84.1 µM and 16.2 µM and > 100 µM | > 100 µM and 16.6 µM | 51 µM and 16.3 µM and 99.4 µM | > 100 µM and 17.3 µM |
| CN(C)Cc1ccc(-c2cc3onc(-c4ccccc4)c3c(=O)n2C)cc1 | > 100 µM | > 100 µM | 50.2 µM | 49.2 | > 100 µM | 54.9 µM | 46.5 µM | 78.8 µM | 34 µM | 26.6 µM | – | – | – | – | – | – | – | – | – | – |
| O=C(CCN1CCCC1)Nc1ccc2c(NCc3ccccc3)c3ccccc3nc2c1 | 2.22 µM | 6.18 µM | 6.97 µM | 2.03 | 2.06 µM | – | 1.91 µM | 2.08 µM | 1.58 µM | 4.05 µM | 0.465 µM | 1.53 µM | 1.86 µM | 0.364 µM | 0.424 µM | 0.411 µM | 0.494 µM | 0.598 µM | 0.261 µM | 1.55 µM |
| C[N+]1=c2c3cccc4cccc(c(=O)n2CC1)c43 | > 100 µM | > 100 µM | 60.7 µM | 10.6 | 33.5 µM | 93.1 µM | 56.1 µM | 34.8 µM | 9.59 µM | 32.4 µM | – | – | – | – | – | – | – | – | – | – |

From PubChem BioAssay (NCI)
